“And” between values parts separate entries of the source, which are not always exact repeats. Equal values may be shown once. Inconclusive results and toxic doses are left out.
Test system: CD2F1 mice, L1210 leukemia ip, survival T/C
Test: NCI In Vivo Anticancer Drug Screen. Data for tumor model L1210 Leukemia (intraperitoneal) in CD2F1 (CDF1) mice
Conditions: higher = longer survival
Outline: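 Mice carrying a transplanted tumor received test compound or vehicle alone. The value is the measurement in the treated group divided by that in the vehicle-treated control group.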

[1] = endpoint: mean survival time, dose: 25.0 mg/kg/injection, schedule: Q01DX009 (ip), vehicle: saline with Tween-80
[2] = endpoint: mean survival time, dose: 50.0 mg/kg/injection, schedule: Q01DX009 (ip), vehicle: saline with Tween-80
[3] = endpoint: mean survival time, dose: 100.0 mg/kg/injection, schedule: Q01DX009 (ip), vehicle: saline with Tween-80
[4] = endpoint: mean survival time, dose: 100.0 mg/kg/injection, schedule: Q04DX003 (ip), vehicle: saline with Tween-80
[5] = endpoint: mean survival time, dose: 200.0 mg/kg/injection, schedule: Q01DX009 (ip), vehicle: saline with Tween-80
[6] = endpoint: mean survival time, dose: 200.0 mg/kg/injection, schedule: Q04DX003 (ip), vehicle: saline with Tween-80
[7] = endpoint: mean survival time, dose: 400.0 mg/kg/injection, schedule: Q01DX009 (ip), vehicle: saline with Tween-80
[8] = endpoint: mean survival time, dose: 400.0 mg/kg/injection, schedule: Q04DX003 (ip), vehicle: saline with Tween-80
[9] = endpoint: mean survival time, dose: 200.0 mg/kg/injection, schedule: Q01DX009 (ip), vehicle: saline
[10] = endpoint: mean survival time, dose: 400.0 mg/kg/injection, schedule: Q01DX009 (ip), vehicle: saline

SMILES: NP(=O)(OCCC(=O)OCc1ccccc1)N(CCCl)CCCl (centres undefined)
- T/C (endpoint: mean survival time, dose: 25.0 mg/kg/injection, schedule: Q01DX009 (ip), vehicle: Klucel (hydroxypropylcellulose) (HPC)): 97 % of control
- T/C (endpoint: mean survival time, dose: 50.0 mg/kg/injection, schedule: Q01DX009 (ip), vehicle: Klucel (hydroxypropylcellulose) (HPC)): 92 % of control
- T/C (endpoint: mean survival time, dose: 100.0 mg/kg/injection, schedule: Q01DX009 (ip), vehicle: Klucel (hydroxypropylcellulose) (HPC)): 91 % of control
- T/C (endpoint: mean survival time, dose: 125.0 mg/kg/injection, schedule: Q01DX001 (ip), vehicle: Klucel (hydroxypropylcellulose) (HPC)): 95 % of control
- T/C (endpoint: mean survival time, dose: 200.0 mg/kg/injection, schedule: Q01DX009 (ip), vehicle: Klucel (hydroxypropylcellulose) (HPC)): 94 % of control
- T/C (endpoint: mean survival time, dose: 250.0 mg/kg/injection, schedule: Q01DX001 (ip), vehicle: Klucel (hydroxypropylcellulose) (HPC)): 93 % of control
- T/C (endpoint: mean survival time, dose: 400.0 mg/kg/injection, schedule: Q01DX009 (ip), vehicle: Klucel (hydroxypropylcellulose) (HPC)): 97 % of control
- T/C (endpoint: mean survival time, dose: 500.0 mg/kg/injection, schedule: Q01DX001 (ip), vehicle: Klucel (hydroxypropylcellulose) (HPC)): 98 % of control
- T/C (endpoint: mean survival time, dose: 1000.0 mg/kg/injection, schedule: Q01DX001 (ip), vehicle: Klucel (hydroxypropylcellulose) (HPC)): 95 % of control

SMILES: COc1ccc(NC(=O)Oc2ccccc2C(C)C)cc1
- T/C [1]: 97 % of control
- T/C (endpoint: mean survival time, dose: 25.0 mg/kg/injection, schedule: Q04DX002 (ip), vehicle: saline with Tween-80): 107 % of control
- T/C [2]: 97 % of control
- T/C (endpoint: mean survival time, dose: 50.0 mg/kg/injection, schedule: Q04DX002 (ip), vehicle: saline with Tween-80): 111 % of control
- T/C [3]: 97 % of control
- T/C (endpoint: mean survival time, dose: 100.0 mg/kg/injection, schedule: Q04DX002 (ip), vehicle: saline with Tween-80): 90 % of control and 96 % of control
- T/C (endpoint: mean survival time, dose: 400.0 mg/kg/injection, schedule: Q04DX002 (ip), vehicle: saline with Tween-80): 93 % of control

SMILES: CC(=O)OC1COC(NC(=O)N(CCCl)N=O)C(OC(C)=O)C1OC(C)=O (centres undefined)
- T/C (endpoint: median survival time, dose: 0.75 mg/kg/injection, schedule: Q01DX009 (ip), vehicle: saline with Tween-80): 115 % of control and 122 % of control and 111 % of control
- T/C (endpoint: median survival time, dose: 3.0 mg/kg/injection, schedule: Q01DX009 (ip), vehicle: saline with Tween-80): 150 % of control and 166 % of control
- T/C (endpoint: median survival time, dose: 6.0 mg/kg/injection, schedule: Q01DX009 (ip), vehicle: saline with Tween-80): 168 % of control and 191 % of control and 205 % of control
- T/C (endpoint: median survival time, dose: 12.0 mg/kg/injection, schedule: Q01DX009 (ip), vehicle: saline with Tween-80): 315 % of control and 322 % of control and 674 % of control

SMILES: O=C(CBr)c1cccnc1
- T/C (endpoint: mean survival time, dose: 6.25 mg/kg/injection, schedule: Q04DX003 (ip), vehicle: saline): 95 % of control
- T/C (endpoint: mean survival time, dose: 12.5 mg/kg/injection, schedule: Q04DX003 (ip), vehicle: saline): 98 % of control
- T/C (endpoint: mean survival time, dose: 25.0 mg/kg/injection, schedule: Q04DX003 (ip), vehicle: saline): 101 % of control

SMILES: CN(C)CCc1ccc(O)cc1
- T/C (endpoint: mean survival time, dose: 25.0 mg/kg/injection, schedule: Q01DX001 (ip), vehicle: saline): 103 % of control
- T/C (endpoint: mean survival time, dose: 50.0 mg/kg/injection, schedule: Q01DX001 (ip), vehicle: saline): 105 % of control
- T/C (endpoint: mean survival time, dose: 100.0 mg/kg/injection, schedule: Q01DX001 (ip), vehicle: saline): 98 % of control and 100 % of control
- T/C [3]: 97 % of control
- T/C [4]: 102 % of control
- T/C [5]: 102 % of control
- T/C [6]: 96 % of control
- T/C [7]: 101 % of control
- T/C [8]: 104 % of control

SMILES: CCCC(O)C(C)[N+](=O)[O-] (centres undefined)
- T/C (endpoint: mean survival time, dose: 100.0 mg/kg/injection, schedule: Q01DX009 (ip), vehicle: saline): 96 % of control
- T/C [9]: 106 % of control
- T/C [10]: 96 % of control

SMILES: c1cc2nc(c1)CSCCCCCCCCSC2
- T/C [3]: 88 % of control
- T/C [5]: 91 % of control
- T/C [7]: 95 % of control

SMILES: NC(Cc1cc(I)c(Oc2cc(I)c(O)c(I)c2)c(I)c1)C(=O)O (centres undefined)
- T/C (endpoint: mean survival time, dose: 0.04 mg/kg/injection, schedule: Q01DX009 (ip), vehicle: saline + alcohol): 96 % of control
- T/C (endpoint: mean survival time, dose: 0.04 mg/kg/injection, schedule: Q01DX009 (ip), vehicle: saline): 88 % of control and 96 % of control
- T/C (endpoint: mean survival time, dose: 0.16 mg/kg/injection, schedule: Q01DX009 (ip), vehicle: saline + alcohol): 102 % of control
- T/C (endpoint: mean survival time, dose: 0.16 mg/kg/injection, schedule: Q01DX009 (ip), vehicle: saline): 91 % of control and 98 % of control
- T/C (endpoint: mean survival time, dose: 0.25 mg/kg/injection, schedule: Q01DX009 (ip), vehicle: saline): 93 % of control
- T/C (endpoint: mean survival time, dose: 0.63 mg/kg/injection, schedule: Q01DX009 (ip), vehicle: saline): 94 % of control
- T/C (endpoint: mean survival time, dose: 0.64 mg/kg/injection, schedule: Q01DX009 (ip), vehicle: saline + alcohol): 94 % of control
- T/C (endpoint: mean survival time, dose: 0.64 mg/kg/injection, schedule: Q01DX009 (ip), vehicle: saline): 87 % of control and 94 % of control
- T/C (endpoint: mean survival time, dose: 1.0 mg/kg/injection, schedule: Q01DX009 (ip), vehicle: saline): 96 % of control
- T/C (endpoint: mean survival time, dose: 2.0 mg/kg/injection, schedule: Q01DX009 (ip), vehicle: saline): 88 % of control
- T/C (endpoint: mean survival time, dose: 2.5 mg/kg/injection, schedule: Q01DX009 (ip), vehicle: saline + alcohol): 93 % of control
- T/C (endpoint: mean survival time, dose: 2.5 mg/kg/injection, schedule: Q01DX009 (ip), vehicle: saline): 91 % of control and 92 % of control and 94 % of control
- T/C (endpoint: mean survival time, dose: 8.0 mg/kg/injection, schedule: Q01DX009 (ip), vehicle: saline): 86 % of control and 88 % of control and 90 % of control
- T/C (endpoint: mean survival time, dose: 10.0 mg/kg/injection, schedule: Q01DX009 (ip), vehicle: saline + alcohol): 94 % of control
- T/C (endpoint: mean survival time, dose: 10.0 mg/kg/injection, schedule: Q01DX009 (ip), vehicle: saline): 89 % of control and 90 % of control and 92 % of control
- T/C (endpoint: mean survival time, dose: 16.0 mg/kg/injection, schedule: Q01DX009 (ip), vehicle: saline): 86 % of control and 89 % of control
- T/C (endpoint: mean survival time, dose: 32.0 mg/kg/injection, schedule: Q01DX009 (ip), vehicle: saline): 83 % of control and 89 % of control
- T/C (endpoint: mean survival time, dose: 40.0 mg/kg/injection, schedule: Q01DX009 (ip), vehicle: saline): 88 % of control
- T/C (endpoint: mean survival time, dose: 64.0 mg/kg/injection, schedule: Q01DX009 (ip), vehicle: saline): 87 % of control and 89 % of control
- T/C (endpoint: mean survival time, dose: 128.0 mg/kg/injection, schedule: Q01DX009 (ip), vehicle: saline): 87 % of control and 90 % of control

SMILES: c1ccc(-c2cc(-c3ccccc3)on2)cc1
- T/C [3]: 96 % of control
- T/C [4]: 93 % of control
- T/C [5]: 94 % of control
- T/C [6]: 94 % of control
- T/C [7]: 97 % of control
- T/C [8]: 98 % of control

SMILES: CC1(C)C2C(Br)C3OC(=O)C(C2C(=O)O)C31 (centres undefined)
- T/C [3]: 96 % of control
- T/C [4]: 91 % of control
- T/C [5]: 96 % of control
- T/C [6]: 96 % of control
- T/C [7]: 93 % of control
- T/C [8]: 91 % of control

SMILES: O=C1c2ccccc2C(=O)n2nc3ccccc3c21
- T/C (endpoint: median survival time, dose: 50.0 mg/kg/injection, schedule: Q04DX002 (ip), vehicle: saline with Tween-80): 100 % of control
- T/C (endpoint: median survival time, dose: 100.0 mg/kg/injection, schedule: Q04DX002 (ip), vehicle: saline with Tween-80): 100 % of control
- T/C (endpoint: median survival time, dose: 200.0 mg/kg/injection, schedule: Q04DX002 (ip), vehicle: saline with Tween-80): 90 % of control
- T/C (endpoint: median survival time, dose: 400.0 mg/kg/injection, schedule: Q04DX002 (ip), vehicle: saline with Tween-80): 100 % of control

SMILES: CCOC(=O)c1c[nH]c2oc(/C=N/N3CC(CN4CCOCC4)OC3=O)cc2c1=O (centres undefined)
- T/C (endpoint: mean survival time, dose: 12.5 mg/kg/injection, schedule: Q01DX009 (ip), vehicle: saline): 97 % of control and 109 % of control
- T/C (endpoint: mean survival time, dose: 25.0 mg/kg/injection, schedule: Q01DX009 (ip), vehicle: other): 102 % of control
- T/C [1]: 107 % of control
- T/C (endpoint: mean survival time, dose: 25.0 mg/kg/injection, schedule: Q01DX009 (ip), vehicle: saline): 97 % of control and 103 % of control
- T/C (endpoint: mean survival time, dose: 50.0 mg/kg/injection, schedule: Q01DX009 (ip), vehicle: other): 110 % of control
- T/C [2]: 109 % of control
- T/C (endpoint: mean survival time, dose: 50.0 mg/kg/injection, schedule: Q01DX009 (ip), vehicle: saline): 114 % of control and 101 % of control
- T/C [3]: 124 % of control
- T/C (endpoint: mean survival time, dose: 200.0 mg/kg/injection, schedule: Q01DX009 (ip), vehicle: other): 160 % of control
- T/C [9]: 158 % of control
- T/C (endpoint: mean survival time, dose: 400.0 mg/kg/injection, schedule: Q01DX009 (ip), vehicle: other): 96 % of control
- T/C [7]: 152 % of control
- T/C [10]: 124 % of control and 100 % of control
- T/C (endpoint: median survival time, dose: 50.0 mg/kg/injection, schedule: Q01DX005 (ip), vehicle: other): 112 % of control
- T/C (endpoint: median survival time, dose: 50.0 mg/kg/injection, schedule: Q01DX009 (ip), vehicle: acid diluted with saline): 115 % of control and 101 % of control
- T/C (endpoint: median survival time, dose: 100.0 mg/kg/injection, schedule: Q01DX005 (ip), vehicle: other): 118 % of control
- T/C (endpoint: median survival time, dose: 100.0 mg/kg/injection, schedule: Q01DX009 (ip), vehicle: acid diluted with saline): 124 % of control
- T/C (endpoint: median survival time, dose: 400.0 mg/kg/injection, schedule: Q01DX005 (ip), vehicle: other): 190 % of control
- T/C (endpoint: median survival time, dose: 400.0 mg/kg/injection, schedule: Q01DX009 (ip), vehicle: acid diluted with saline): 90 % of control

SMILES: CCC(C)NC(=O)C1C2CCC(C2)C1C(=O)NC(C)CC (centres undefined)
- T/C [4]: 98 % of control
- T/C [6]: 98 % of control
- T/C [8]: 102 % of control

SMILES: Nc1nc(N)c2ncn(Cc3ccccc3)c2n1
- T/C [4]: 98 % of control
- T/C [6]: 93 % of control
- T/C [8]: 100 % of control

Reference: PubChem BioAssay AID256 (DTP/NCI, 2004)
